We go through 29 compounds from patent US20030203966A1, “Nitromethylthiobenzene derivatives as aldose reductase inhihibitors” (priority 1996, published 2003).

Counter-ions that a name gives are not always drawn.

A word on the melting point: it is the temperature, or range, at which the solid turns liquid. Compound `Cc1cc(NS(=O)(=O)Cc2ccccc2[N+](=O)[O-])cc(C)c1S(=O)(=O)C[N+](=O)[O-]` showed a melting point of 189 to 190 °C.
Next, `Cc1cc(NC(=O)CCCCCCC(=O)Nc2cc(C)c(S(=O)(=O)C[N+](=O)[O-])c(C)c2)cc(C)c1S(=O)(=O)C[N+](=O)[O-]`: 235 to 238 °C.
For the compound `Cc1cc(NC(=O)CCCC(=O)Nc2cc(C)c(S(=O)(=O)C[N+](=O)[O-])c(C)c2)cc(C)c1S(=O)(=O)C[N+](=O)[O-]`, the melting point lay in the range of 207 to 210 °C.
Then `Cc1cc(NS(=O)(=O)c2cccc(S(=O)(=O)Nc3cc(C)c(S(=O)(=O)C[N+](=O)[O-])c(C)c3)c2)cc(C)c1S(=O)(=O)C[N+](=O)[O-]`, with 191 to 192 °C.
Then `Cc1cc(NC(=O)C(=O)Nc2cc(C)c(S(=O)(=O)C[N+](=O)[O-])c(C)c2)cc(C)c1S(=O)(=O)C[N+](=O)[O-]`, with 246 to 248 °C; and `O=C(CCCC(=O)Nc1ccc(S(=O)(=O)C[N+](=O)[O-])cc1)Nc1ccc(S(=O)(=O)C[N+](=O)[O-])cc1`, with 203 to 205 °C; and `Cc1cc(N(C(=O)CCC(N)=O)c2cc(C)c(S(=O)(=O)C[N+](=O)[O-])c(C)c2)cc(C)c1S(=O)(=O)C[N+](=O)[O-]`, with 226 to 228 °C.
Compound `Cc1cc(NC(=O)CC(=O)Nc2cc(C)c(S(=O)(=O)C[N+](=O)[O-])c(C)c2)cc(C)c1S(=O)(=O)C[N+](=O)[O-]` returned a melting point of 197 to 199 °C.
For `Cc1cc(NC(=O)Nc2cc(C)c(S(=O)(=O)C[N+](=O)[O-])c(C)c2)cc(C)c1S(=O)(=O)C[N+](=O)[O-]`, the melting point lay in the range of 224 to 226 °C.
`Cc1cc(NS(=O)(=O)Cc2cccc(CS(=O)(=O)Nc3cc(C)c(S(=O)(=O)C[N+](=O)[O-])c(C)c3)c2)cc(C)c1S(=O)(=O)C[N+](=O)[O-]` came in with a melting point of 124 to 130 °C.
Next, `Cc1cc(NS(=O)(=O)c2cc(F)c(Br)cc2F)cc(C)c1S(=O)(=O)C[N+](=O)[O-]` (as salt: acetate) [Example 27, 4-Bromo-2,5-difluoro-N-[3,5-dimethyl-4-[(nitromethyl)-sulphonyl]phenyl]benzenesulphonamide]: 167 to 169 °C; `Cc1cc(NS(C)(=O)=O)cc(C)c1S(=O)(=O)C[N+](=O)[O-]` (as salt: acetate) [Example 40, N-[3,5-Dimethyl-4-[(nitromethyl)sulphonyl]phenyl]-methanesulphonamide]: 138 to 140 °C; `Cc1cc(NS(=O)(=O)c2ccccc2)cc(C)c1SC[N+](=O)[O-]` [Example 3, N-[3,5-Dimethyl-4-[(nitromethyl)thio]phenyl]benzenesulphonamide]: 146 to 148 °C.
Regarding `Cc1cc(NS(=O)(=O)c2ccccc2)cc(C)c1[S+]([O-])C[N+](=O)[O-]` (centres unmarked) [Example 4, N-[3,5-Dimethyl-4-[(nitromethyl)sulphinyl]phenyl]-benzenesulphonamide], the melting point is > 50 °C (dec.).
`Cc1cc(NS(=O)(=O)c2ccc(Cl)cc2)cc(C)c1S(=O)(=O)C[N+](=O)[O-]` [Example 5, 4-Chloro-N-[3,5-dimethyl-4-[(nitromethyl)sulphonyl]-phenyl]benzenesulphonamide] came in with a melting point of 160 to 162 °C.
Next, `Cc1cccc(S(=O)(=O)Nc2cc(C)c(S(=O)(=O)C[N+](=O)[O-])c(C)c2)c1` [Example 6, N-[3,5-Dimethyl-4-[(nitromethyl)sulphonyl]phenyl]-3-methylbenzenesulphonamide]: 179 to 181 °C; `Cc1ccc(S(=O)(=O)Nc2cc(C)c(S(=O)(=O)C[N+](=O)[O-])c(C)c2)cc1` [Example 7, N-[3,5-Dimethyl-4-[(nitromethyl)sulphonyl]phenyl]-4-methylbenzenesulphonamide]: 163 to 165 °C; `Cc1cc(NS(=O)(=O)c2ccc(F)cc2F)cc(C)c1S(=O)(=O)C[N+](=O)[O-]` [Example 8, 2,4-Difluoro-N-[3,5-dimethyl-4-[(nitromethyl)sulphonyl]phenyl]benzenesulphonamide]: 154 to 156 °C.
In turn, `Cc1cc(NS(=O)(=O)c2cccc(C(F)(F)F)c2)cc(C)c1S(=O)(=O)C[N+](=O)[O-]` [Example 9, N-[3,5-Dimethyl-4-[(nitromethyl)sulphonyl]phenyl]-3-(trifluoromethyl)benzenesulphonamide] showed a melting point of 146 to 148 °C.
`Cc1cc(NS(=O)(=O)c2ccc3ccccc3c2)cc(C)c1S(=O)(=O)C[N+](=O)[O-]` [Example 15, N-[3,5-Dimethyl-4-[(nitromethyl)sulphonyl]phenyl]-2-naphthalenesulphonamide]: the melting point lay in the range of 208 to 215 °C.
Then `Cc1cc(NS(=O)(=O)c2ccccc2Br)cc(C)c1S(=O)(=O)C[N+](=O)[O-]` [Example 17, 2-Bromo-N-[3,5-dimethyl-4-[(nitromethyl)sulphonyl]-phenyl]benzenesulphonamide], with 140 to 142 °C; and `Cc1cc(NS(=O)(=O)c2ccc(S(C)(=O)=O)cc2)cc(C)c1S(=O)(=O)C[N+](=O)[O-]` [Example 18, N-[3,5-Dimethyl-4-[(nitromethyl)sulphonyl]phenyl]-4-(methylsulphonyl)benzenesulphonamide], with 192 to 194 °C.
The compound `Cc1cc(NS(=O)(=O)/C=C/c2ccccc2)cc(C)c1S(=O)(=O)C[N+](=O)[O-]` [Example 19, (E)-N-[3,5-Dimethyl-4-[(nitromethyl)sulphonyl]phenyl]-styrenesulphonamide] yielded a melting point of 174 to 176 °C.
`Cc1ccccc1S(=O)(=O)NC(=O)Nc1cc(C)c(S(=O)(=O)C[N+](=O)[O-])c(C)c1` [Example 20, 1-[3,5-Dimethyl-4-[(nitromethyl)sulphonyl]phenyl]-3-[(2-methylphenyl)sulphonyl]urea] displayed a melting point of 194 to 196 °C.
Next, `Cc1ccc(S(=O)(=O)NC(=O)Nc2cc(C)c(S(=O)(=O)C[N+](=O)[O-])c(C)c2)cc1` [Example 21, 1-[3,5-Dimethyl-4-[(nitromethyl)sulphonyl]phenyl]-3-[(4-methylphenyl)sulphonyl]urea]: 150 to 155 °C; `CC(=O)Nc1ccc(S(=O)(=O)Nc2cc(C)c(S(=O)(=O)C[N+](=O)[O-])c(C)c2)cc1` [Example 22, N-[4-[3,5-Dimethyl-4-[(nitromethyl)sulphonyl]phenylsulphamoyl]phenyl]acetamide]: 209 to 210 °C.
`Cc1cc(NS(=O)(=O)CC(F)(F)F)cc(C)c1S(=O)(=O)C[N+](=O)[O-]` [Example 23, N-[3,5-Dimethyl-4-[(nitromethyl)sulphonyl]phenyl]-2,2,2-trifluoroethanesulphonamide]: the melting point was 168 to 170 °C.
As for `Cc1cc(NS(=O)(=O)c2cc(F)ccc2F)cc(C)c1S(=O)(=O)C[N+](=O)[O-]` [Example 28, 2,5-Difluoro-N-[3,5-dimethyl-4-[(nitromethyl)sulphonyl]phenyl]benzenesulphonamide], the melting point was 132 to 134 °C.
Regarding `Cc1cc(NS(=O)(=O)c2cccc3ccccc23)cc(C)c1S(=O)(=O)C[N+](=O)[O-]` [Example 31, N-[3,5-Dimethyl-4-[(nitromethyl)sulphonyl]phenyl]-1-naphthalenesulphonamide], the melting point lay in the range of 170 to 172 °C.
